These results are taken from patent US20260235624A1, “PEPTIDES AND THEIR LABELLED DERIVATIVES SUITABLE FOR USE IN THE DIAGNOSIS OF DIABETES OR ITS COMPLICATIONS” (Instytut Medycyny Doswiadczalnej i Klinicznej im. Miroslawa …, priority 2023, published 2026).

The subject of one experiment is ADAM10. Put plainly: Hydrolysis of the ADAM10 substrate in urine samples, increase in fluorescence. It is filed as biochemical, human. The conditions noted are these: control urine samples Z1-Z10 (healthy subjects); 20 μL of 45 μM substrate, buffer pH 9.0, 37° C., 30 minutes, triplicate. The procedure:
(§1) 20 μL of a 45 μM substrate solution of the peptide of the invention or its labelled derivative were mixed with 100 μL of the measurement buffer (25 mM Tris-Cl, 2.5 μM ZnCl2 and 0.005% Brij-35, pH 9.0) and 80 μL of test urine from a patient diagnosed with diabetes or a healthy person (control).
(§2) When fluorescently labelled derivatives were used, measurements were carried out in triplicate in a 96-well plate using a CLARIOStar plate reader (BMG Labtech, Ortenberg, Germany) at 37° C. for 30 minutes. After this time, the measurement was finished and the increase in fluorescence was determined. If a fluorescence increase of more than 0.0001 U/sec was obtained, the urine sample tested was considered to originate from a person with diabetes.

Another experiment has as its system ADAM17. Put plainly: Hydrolysis of the ADAM17 substrate in urine samples, increase in fluorescence. Type of experiment: biochemical, human. The settings on record: control urine samples Z1-Z10 (healthy subjects); 20 μL of 45 μM substrate, buffer pH 9.0, 37° C., 30 minutes, triplicate. The procedure:
as §1, §2

On to “ABZ-Lys-Ile-Ile-Asn-Leu-Lys-Arg-Tyr(3-NO2)—NH2”, for which the “Increase in concentration of labelled degradation products in the urine sample, Mean” value in the experiment on ADAM10 turned out to be 0.000000.

“ABZ-Asn-Tyr-Met-Ala-Leu-Arg-Arg-Tyr(3-NO2)—NH2”: the “Increase in concentration of labelled degradation products in the urine sample, Mean” value with ADAM17 worked out at 0.000000.
